Counter-ions that a name gives are not always drawn.
Assays:
Assay type in all cases: physicochemical
[1] = Release of free lidocaine from the PVA-acrylamide hydrogel (Example 2); conditions: in 8 hours; 3 g UV-crosslinked hydrogel in 5 ml buffer; UV at 263 nm
Protocol: (§1) The hydrogel matrix is the same as Example 1.
(§2) The vesicles are loaded with lidocaine HCl, via a phase transfer method from chloroform to water, and cleaned over a Sepharose column. The resulting vesicles formulation is mixed with the PVA-acrylamide macromer and Irgacure 2959.3 g of the hydrogel is crosslinked with UV and immersed in 5 ml buffer solution at pH 4. The 5 ml buffer is exchanged after 8-16 h with 5 ml buffer solution at 0.5 pH units higher and left for another 8-16 h. This is repeated until pH 6.5 is reached. About 80% of free lidocaine is released from the hydrogel in 8 hours. The lidocaine HCl release is measured with UV at 263 nm and compared to a standard curve.

[2] = Release from pH responsive vesicles in hydrogel (Example 2); conditions: poly(2-vinylpyridine-b-ethylene oxide) vesicles in hydrogel; buffer pH 4 to 6.5 in 0.5 pH steps
Description: The vesicles are made from the block copolymer poly(2-vinylpyridine-b-ethylene oxide) (NP2VP:29,NPEO: 15) This polymer can be made as described in Foerster et al., Langmuir, 2006, 22, 5843-5847.
as §1, §2

[3] = Release from temperature sensitive vesicles in hydrogel (Example 4); conditions: cooled from 40 C to room temperature, 10 ml water, 12 hours
Protocol: The vesicles are loaded with lidocaine HCl in a buffered solution at pH 6.5 above 40 C and cleaned over a Sepharose column. The resulting vesicles are mixed into 3 g of hydrogel at a solid content of 7% at 40 C. The hydrogel is cooled to room temperature and immersed in 10 ml of water. […] The release is measured with UV at 263 nm over 12 hours.

[4] = Release from vesicles crosslinked into the hydrogel (Example 5); conditions: buffer pH 6.5, 50 C for 24 hours or taken out of solution over night
Description: Vesicles are made from the block copolymer HO-poly(2-methyl-2-oxazoline)-b-polydimethylsiloxane-b-poly(2-methyl-2-oxazoline)-OH modified with isocyanto-ethylmetacrylate at the OH endgroups as taught in U.S. Pat. No. 5,807,944 to Hirt et al.
The hydrogel matrix is made as described in Example 1.
The vesicles are loaded with a hydrophilic lidocaine HCl and cleaned over a Sepharose column as taught above. The resulting vesicles formulation is mixed with the PVA-acrylamide macromer and Irgacure 2959.3 times 3 g of the hydrogel is crosslinked with UV and immersed in 10 ml buffer solution at pH 6.5 each. One sample is exposed to 50 C for 24 hours and left for another 24 hours. One sample is taken out of solution over night and put back into the buffer for 24 hours. Solutions are analyzed with UV for the lidocaine release and compared to the untreated solution.

[5] = Passive diffusion from vesicles and hydrogel matrix (Example 1); conditions: PMOXA-b-PDMS-b-PMOXA vesicles in PVA-acrylamide hydrogel; water
Protocol: Vesicles are made out of the block copolymer poly(2-methyl-2-oxazoline)-b-polydimethylsiloxane-b-poly(2-methyl-2-oxazoline). Molecular weights of the segments are poly(2-methyl-2-oxazoline): 1300, and PDMS segment: 4400. The copolymer is made as described in U.S. Pat. No. 5,807,944 to Hirt et al.
A total of 50 mg of polymer was dissolved in 250 μl of ethanol (99%). The ethanolic solution was slowly added to 5 ml of bi-distilled water containing 0.2 M carboxy-fluorescein. A minimum of 4 h of stirring was allowed. Subsequently, the vesicles were extruded through 0.45 μm and 0.22 μm filters (Millex Durapore-PVDF, Millipore) 6 times. This procedure ensures formation of unilamellar vesicles with diameters dictated by the pore size of the extrusion filters and with a more monodisperse size distribution. Chromatographic separation was achieved on a Sepharose 4B column (1×30 cm) eluted with bi-distilled water. The slightly hazy fraction contains the vesicles.
The hydrogel matrix is based on a PVA-acrylamide macromer and a UV-initiator as taught by U.S. Pat. No. 7,070,809 to Goupil et al., Example 5a. […]
3 g of the vehicle are immersed in 5 ml of water. The water is exchanged every hour for the first 8 hours and every 24 hours thereafter and the fluorescence of the supernatant is measured in order to calculate the amount of carboxy-fluorescein released from the vehicle.

Row | Compound | free lidocaine released from the hydrogel [1] | lidocaine HCl release out of the vesicles in response to a change in pH [2] | release of vesicle content at room temperature [3] | lidocaine release after shape change of the hydrogel [4] | passive release of active agent out of the vesicles and hydrogel matrix [5]
1 | CCN(CC)CC(=O)Nc1c(C)cccc1C [lidocaine HCl] | About 80% | released slowly with increasing pH, with an increased rate after pH 5 | release their content slowly | ruptured the vesicles and their content is released | 
2 | Carboxy-fluorescein |  |  |  |  | slowly diffuse out of the vesicles and then be released from the hydrogel
